# Assay results published in US20080227796A1, “7-Amino-6-Hetaryl-1,2,4-Triazolo[1,5-A]Pyrimidine Compounds and the Use Thereof for Controlling Pathogenic Fungi” (BASF Aktiengesellschaft, priority 2004, published 2008).
# System: Puccinia recondita
# Test: Protective activity against Puccinia recondita on wheat (brown rust of wheat)
# Assay type: in vivo
# Conditions: 250 ppm, protective: wheat seedlings sprayed the day before inoculation, visual rating after a further 7 days; untreated plants 90% infected
# Procedure: The respective active compound was prepared as a stock solution with 25 mg of active compound which was made up to 10 ml with a mixture of acetone and/or dimethyl sulfoxide (DMSO) and the emulsifier Uniperol® EL (wetting agent having emulsifying and dispersing action based on ethoxylated alkylphenols) in a volume ratio solvent/emulsifier of 99 to 1. The solution was then made up to 100 ml with water. This stock solution was diluted to the active compound concentration stated below using the solvent/emulsifier/water mixture described.
# Leaves of potted wheat seedlings of the cultivar “Kanzler” were sprayed to runoff point with an aqueous suspension having the active compound concentration stated below. The next day, the treated plants were inoculated with a spore suspension of brown rust of wheat (Puccinia recondita). The plants were then placed in a chamber with high atmospheric humidity (90 to 95%) at 20 to 22° C. for 24 hours. During this time, the spores germinated and the germ tubes penetrated into the leaf tissue. The next day, the test plants were returned to the greenhouse and cultivated at temperatures between 20 and 22° C. and 65 to 70% relative atmospheric humidity for a further 7 days. The extent of the rust fungal development on the leaves was then determined visually.
smiles,measurement,value
Cc1cc(-c2c(Cl)nc3ncnn3c2N[C@H](C)C(C)C)ccn1 [Example 59],infection,no infection
